Numbering of substitutions follows the chain as printed. pKd: −log10 of the molar value.
Tests used:
PDZ-binding kinase (PBK) [1] = molecular target: T1, PDZ-binding kinase (PBK) (Homo sapiens, UniProt Q96KB5, D125A/N124A); assay: microscale thermophoresis (MST)
T1 sequence (Q96KB5 1-322 N124A/D125A): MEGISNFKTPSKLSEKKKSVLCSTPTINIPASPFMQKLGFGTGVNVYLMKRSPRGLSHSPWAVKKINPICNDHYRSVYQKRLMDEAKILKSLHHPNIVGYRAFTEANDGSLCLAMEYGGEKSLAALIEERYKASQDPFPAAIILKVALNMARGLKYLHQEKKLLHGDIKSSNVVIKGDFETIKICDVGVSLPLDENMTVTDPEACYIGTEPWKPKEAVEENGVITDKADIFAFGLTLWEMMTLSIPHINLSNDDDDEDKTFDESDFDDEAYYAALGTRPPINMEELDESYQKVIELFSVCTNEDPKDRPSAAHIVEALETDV

PDZ-binding kinase (PBK) [2] = molecular target: T2, PDZ-binding kinase (PBK) (Homo sapiens, UniProt Q96KB5); assay: microscale thermophoresis (MST) with RED-NHS labelled purified PBK
T2 sequence (Q96KB5 1-322): T1 sequence (Q96KB5 1-322 N124A/D125A) with A124N, A125D

With `C=CC(=O)Nc1cc(Nc2nccc(-c3cn4c5c(cccc35)CCC4)n2)c(OC)cc1N(C)CCN(C)C` [FHND004] the pKd (PDZ-binding kinase (PBK) [1]) was 4.00 and the pKd (PDZ-binding kinase (PBK) [2]) was 5.51.

Source: article PMC10968680, “FHND004 inhibits malignant proliferation of multiple myeloma by targeting PDZ-binding kinase in MAPK pathway” (Aging (Albany NY), 2024)
